Source: US8569301B2, “6, 6-dioxo-6-thia-1, 4-diaza-naphthalenes as herbicides” (Syngenta Limited, priority 2009, dated 2013)

Experiments:
Assay type in all cases: in vivo
Conditions in all cases: sprayed after 8 days cultivation, evaluated after 13 days, scores from 10 to 0 (10=total damage to plant; 0=no damage to plant)
[1] = test system: IPOHE; assay: Example B1 herbicidal action post-emergence, IPOHE
Description: (§1) Seeds of a variety of test species were sown in standard soil in pots. After 8 days cultivation (post-emergence) under controlled conditions in a glasshouse (at 24/16° C., day/night; 14 hours light; 65% humidity), the plants were sprayed with an aqueous spray solution derived from the formulation of the technical active ingredient in acetone/water (50:50) solution containing 0.5% Tween 20 (polyoxyethelyene sorbitan monolaurate, CAS RN 9005-64-5). The test plants were then grown under controlled conditions in a glasshouse (at 24/16° C., day/night; 14 hours light; 65% humidity) and watered twice daily. After 13 days, the test was evaluated and the assessed scores, from 10 to 0, are tabulated in Table B1 (10=total damage to plant; 0=no damage to plant).

[2] = test system: SETFA; assay: Example B1 herbicidal action post-emergence, SETFA
Description: as §1

[3] = test system: SOLNI; assay: Example B1 herbicidal action post-emergence, SOLNI
Description: as §1

[4] = test system: ECHCG; assay: Example B1 herbicidal action post-emergence, ECHCG
Description: as §1

[5] = test system: AMARE; assay: Example B1 herbicidal action post-emergence, AMARE
Description: as §1

Row | SMILES | assessed score, application post-emergence, IPOHE ([1]; Rate 1000 g/ha) | assessed score, application post-emergence, SETFA ([2]; Rate 1000 g/ha) | assessed score, application post-emergence, SOLNI ([3]; Rate 1000 g/ha) | assessed score, application post-emergence, ECHCG ([4]; Rate 1000 g/ha) | assessed score, application post-emergence, AMARE ([5]; Rate 1000 g/ha) | assessed score, application post-emergence, IPOHE ([1]; Rate 250 g/ha) | assessed score, application post-emergence, SETFA ([2]; Rate 250 g/ha) | assessed score, application post-emergence, SOLNI ([3]; Rate 250 g/ha) | assessed score, application post-emergence, ECHCG ([4]; Rate 250 g/ha) | assessed score, application post-emergence, AMARE ([5]; Rate 250 g/ha)
1 | CCOCOC1=C(c2cc(Cl)ccc2C(F)(F)F)S(=O)(=O)Cc2nccnc21 [Compound X1, 7-(5-chloro-2-trifluoromethyl-phenyl)-8-ethoxymethoxy-5H-6-thia-1,4-diaza-naphthalene 6,6-dioxide] | 7 | 6 | 8 | 2 | 6 |  |  |  |  | 
2 | O=S1(=O)Cc2nccnc2C(O)=C1c1ccc(F)cc1Cl [Compound C8] | 1 | 5 | 7 | 3 | 5 |  |  |  |  | 
3 | CCc1cc(-c2ccc(Cl)cc2Cl)ccc1C1=C(O)c2nccnc2CS1(=O)=O [Compound C24] | 3 | 10 | 6 | 7 | 10 |  |  |  |  | 
4 | COc1ccc(Cl)c(C2=C(O)c3nccnc3CS2(=O)=O)c1F [Compound C5] | 3 | 4 | 4 | 1 | 3 |  |  |  |  | 
5 | O=S1(=O)C(c2c(Cl)cccc2C(F)(F)F)=C(O)c2nccnc2C1CC(F)F (racemic) [Compound E4] | 7 | 6 | 8 | 6 | 9 |  |  |  |  | 
6 | O=S1(=O)Cc2nccnc2C(O)=C1c1c(F)ccc(F)c1Cl [Compound C12] | 6 | 6 | 8 | 3 | 8 |  |  |  |  | 
7 | O=S1(=O)C(c2c(F)ccc(Br)c2Cl)=C(O)c2nccnc2C1CC(F)F (stereo not shown) [Compound E9] | 8 | 5 | 9 | 3 | 10 |  |  |  |  | 
8 | O=S1(=O)C(c2c(F)ccc(Br)c2Cl)=C(O)c2nccnc2C12CCC2 [Compound F7] | 6 | 1 | 5 | 1 | 4 |  |  |  |  | 
9 | O=S1(=O)Cc2nccnc2C(O)=C1c1cc(C(F)(F)F)ccc1Cl [Compound C2] | 0 | 0 | 0 | 0 | 0 |  |  |  |  | 
10 | C#CCC1c2nccnc2C(O)=C(c2c(C)cc(C)cc2C)S1(=O)=O (stereo not shown) [Compound E16] | 5 | 2 | 8 | 2 | 5 |  |  |  |  | 
11 | Cc1cc(C)c(C2=C(O)c3nccnc3C(C)(C)S2(=O)=O)c(C)c1 [Compound F1, 5,5-dimethyl-6,6-dioxo-7-(2,4,6-trimethyl-phenyl)-5,6-dihydro-6-thia-1,4-diaza-naphthalen-8-ol] | 8 | 8 | 10 | 8 | 10 |  |  |  |  | 
12 | Cc1cccc(F)c1C1=C(O)c2nccnc2CS1(=O)=O [Compound C4] | 2 | 5 | 4 | 3 | 7 |  |  |  |  | 
13 | O=S1(=O)Cc2nccnc2C(O)=C1c1cc(Cl)cc(C(F)(F)F)c1 [Compound C3] | 0 | 0 | 0 | 0 | 0 |  |  |  |  | 
14 | O=S1(=O)C(c2c(Cl)cccc2C(F)(F)F)=C(O)c2nccnc2C12CC2 [Compound F4] | 7 | 8 | 9 | 6 | 9 |  |  |  |  | 
15 | O=S1(=O)Cc2nccnc2C(O)=C1c1cc(C(F)(F)F)ccc1C(F)(F)F [Compound C16] | 7 | 3 | 10 | 5 | 9 |  |  |  |  | 
16 | CC1(C)c2nccnc2C(O)=C(c2ccc(Br)cc2C(F)(F)F)S1(=O)=O [Compound F6] |  |  |  |  |  | 8 | 8 | 9 | 9 | 9
17 | CCC1c2nccnc2C(O)=C(c2cc(Cl)ccc2C(F)(F)F)S1(=O)=O (racemic) [Compound E6] | 7 | 3 | 8 | 5 | 8 |  |  |  |  | 
18 | O=S1(=O)Cc2nccnc2C(O)=C1c1c(F)ccc(Cl)c1Cl [Compound C1, 7-(2,3-dichloro-6-fluoro-phenyl)-6,6-dioxo-5,6-dihydro-6-λ-6-thia-1,4-diaza-naphthalen-8-ol] | 8 | 8 | 8 | 7 | 10 |  |  |  |  | 
19 | O=S1(=O)Cc2nccnc2C(O)=C1c1ccc(Br)cc1C(F)(F)F [Compound C22] | 7 | 5 | 9 | 5 | 10 |  |  |  |  | 
20 | O=S1(=O)C(c2cc(Cl)ccc2C(F)(F)F)=C(O)c2nccnc2C1CC(F)F (racemic) [Compound E7] |  |  |  |  |  | 7 | 2 | 7 | 2 | 6
21 | C#CCC1c2nccnc2C(O)=C(c2c(Cl)cccc2C(F)(F)F)S1(=O)=O (racemic) [Compound E2] | 8 | 8 | 8 | 8 | 10 |  |  |  |  | 
22 | O=S1(=O)Cc2nccnc2C(O)=C1c1c(Cl)cccc1Cl [Compound C19] | 8 | 8 | 9 | 7 | 7 |  |  |  |  | 
23 | CC1(C)c2nccnc2C(O)=C(c2c(Cl)cccc2C(F)(F)F)S1(=O)=O [Compound F9] | 9 | 8 | 8 | 8 | 9 |  |  |  |  | 
